Data on 18 compounds can be found in PubChem BioAssay (NCI).

SMILES strings stand for the structures.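 Interpolation was linear, between the two tested concentrations surrounding the appropriate level; five concentrations were tested over 48 hours in 96-well plates. TGI is the concentration that stops growth completely.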 A value given as a limit tells only on which side of the number the result lay.

Some test systems named below: SN12C renal; HCC-2998 colon; MDA-N; ACHN renal; HCT-116 colon; COLO 205 colon; MDA-MB-435; HOP-92 NSCLC; SK-MEL-5 melanoma; MOLT-4 leukemia; SF-268 CNS; OVCAR-5 ovarian; SNB-19 CNS.
Holding throughout (assay): growth of human tumour cells (NCI), 48 h

With `COc1ccc(/C(Br)=C2\OC(=O)c3ccccc32)cc1`, the TGI with SN12C renal, in the assay with HCC-2998 colon, with MDA-N, with ACHN renal, in the assay on HCT-116 colon and in the assay on COLO 205 colon was greater than 10 µM throughout. For the same compound, the TGI with MDA-MB-435, with HOP-92 NSCLC, in the assay with SK-MEL-5 melanoma, in the assay with MOLT-4 leukemia, in the assay with SF-268 CNS and with OVCAR-5 ovarian was greater than 10 µM in each case. In the assay on SNB-19 CNS, this compound gave a TGI greater than 10 µM.

Regarding `CC1=NC(=Cc2ccccc2O)C(=O)N1n1c(-c2ccccc2)nc2ccccc2c1=O`, the TGI in the assay on SN12C renal, in the assay with HCC-2998 colon, in the assay with MDA-N, in the assay with ACHN renal, in the assay on HCT-116 colon and in the assay on COLO 205 colon was greater than 100 µM throughout. Further, the TGI was greater than 100 µM in the assay on MDA-MB-435; greater than 100 µM with HOP-92 NSCLC; 61.4 µM with SK-MEL-5 melanoma; greater than 100 µM with MOLT-4 leukemia; greater than 100 µM in the assay on SF-268 CNS; greater than 100 µM in the assay on OVCAR-5 ovarian. Further, in the assay with SNB-19 CNS, the TGI was greater than 100 µM.

With `CCOC(=O)c1nc2cc(C(F)(F)F)ccc2nc1Nc1ccc(OC)cc1`, the TGI in the assay with SN12C renal, in the assay on HCC-2998 colon, with MDA-N, with ACHN renal, in the assay on HCT-116 colon and with COLO 205 colon was greater than 100 µM in each case. In addition, the TGI in the assay on MDA-MB-435, in the assay with HOP-92 NSCLC, in the assay on SK-MEL-5 melanoma, with MOLT-4 leukemia, with SF-268 CNS and in the assay with OVCAR-5 ovarian was greater than 100 µM throughout. For the same compound, the TGI in the assay on SNB-19 CNS was greater than 100 µM.

With `CC(C)=CCN1CC(C)C(=O)Nc2ccccc21` (centres undefined), the TGI in the assay with SN12C renal, in the assay on HCC-2998 colon, with MDA-N, in the assay on ACHN renal, in the assay on HCT-116 colon and with COLO 205 colon was greater than 100 µM throughout. For the same compound, the TGI with MDA-MB-435, with HOP-92 NSCLC, with SK-MEL-5 melanoma, in the assay with MOLT-4 leukemia, in the assay on SF-268 CNS and in the assay on OVCAR-5 ovarian was greater than 100 µM throughout. For the same compound, in the assay with SNB-19 CNS, the TGI was greater than 100 µM.

For the compound `CC(=O)Oc1ccc(/C=C/C(=O)OCCCOC(=O)/C=C/c2ccc(OC(C)=O)c(OC(C)=O)c2)cc1OC(C)=O`, the TGI in the assay with SN12C renal, in the assay with HCC-2998 colon, with MDA-N, with ACHN renal, with HCT-116 colon and with COLO 205 colon was greater than 100 µM each time. For the same compound, the TGI with MDA-MB-435, in the assay on HOP-92 NSCLC, with SK-MEL-5 melanoma, in the assay on MOLT-4 leukemia, in the assay on SF-268 CNS and in the assay on OVCAR-5 ovarian was greater than 100 µM throughout. The compound further yielded a TGI in the assay on SNB-19 CNS greater than 100 µM.

For `C[C@]12C[C@@H](OC(=O)[C@]1(C)O)[C@@H]([C@]1(O)CC[C@H]3[C@@H]4C[C@H]5O[C@]56C[C@H]5O[C@H]5C(=O)[C@]6(C)[C@H]4CC[C@@]31C)C2`, the TGI with SN12C renal, in the assay on HCC-2998 colon, in the assay on MDA-N, in the assay on ACHN renal, in the assay on HCT-116 colon and in the assay on COLO 205 colon was greater than 50 µM throughout. Moreover, the TGI with MDA-MB-435, in the assay on HOP-92 NSCLC, with SK-MEL-5 melanoma, in the assay with MOLT-4 leukemia, in the assay with SF-268 CNS and in the assay on OVCAR-5 ovarian was greater than 50 µM throughout. Besides, the TGI in the assay with SNB-19 CNS is greater than 50 µM.

As for `CCOC(=O)CNC(=O)C(CSC(=O)N(O)c1ccc(Cl)cc1)NC(=O)CCC(N)C(=O)OCC` (centres undefined), the TGI in the assay with SN12C renal, with HCC-2998 colon, in the assay on MDA-N, with ACHN renal, in the assay on HCT-116 colon and in the assay on COLO 205 colon was greater than 50 µM throughout. Moreover, the TGI with MDA-MB-435, with HOP-92 NSCLC, with SK-MEL-5 melanoma, in the assay on MOLT-4 leukemia, in the assay with SF-268 CNS and in the assay on OVCAR-5 ovarian was greater than 50 µM throughout. In the assay on SNB-19 CNS, this compound came in with a TGI greater than 50 µM.

In the case of `COc1ccc(N2C(=O)/C(=C\c3cc(OC)c(OC)c(OC)c3)SC2c2ccccc2)cc1` (centres undefined), the TGI in the assay with SN12C renal, with HCC-2998 colon, with MDA-N, in the assay on ACHN renal, with HCT-116 colon and with COLO 205 colon was greater than 100 µM each time. The TGI in the assay with MDA-MB-435, with HOP-92 NSCLC, in the assay on SK-MEL-5 melanoma, in the assay on MOLT-4 leukemia, in the assay on SF-268 CNS and in the assay on OVCAR-5 ovarian was greater than 100 µM each time. The same compound yielded a TGI with SNB-19 CNS greater than 100 µM.

Regarding `O=c1[nH]c(=S)nc2nc3c4ccc[nH]c4c4ccccc4c3nc12`, the TGI in the assay on SN12C renal, in the assay with HCC-2998 colon, in the assay on MDA-N, in the assay with ACHN renal, in the assay on HCT-116 colon and with COLO 205 colon was greater than 100 µM throughout. For the same compound, the TGI with MDA-MB-435, in the assay on HOP-92 NSCLC, in the assay with SK-MEL-5 melanoma, in the assay with MOLT-4 leukemia, in the assay with SF-268 CNS and in the assay on OVCAR-5 ovarian was greater than 100 µM in each case. Further, in the assay with SNB-19 CNS, the TGI is greater than 100 µM.

With `CCOC(=O)N1N=C(/C(C)=N/OC)C(C)S1=O` (centres undefined), the TGI with SN12C renal, with HCC-2998 colon, with MDA-N, with ACHN renal, in the assay on HCT-116 colon and in the assay with COLO 205 colon was greater than 100 µM throughout. The TGI in the assay with MDA-MB-435, in the assay with HOP-92 NSCLC, in the assay on SK-MEL-5 melanoma, in the assay on MOLT-4 leukemia, in the assay with SF-268 CNS and in the assay on OVCAR-5 ovarian was greater than 100 µM throughout. In the assay on SNB-19 CNS, this compound displayed a TGI greater than 100 µM.

With `Nc1ncnc2oc(C3OC(COC(=O)c4ccccc4)C(OC(=O)c4ccccc4)C3OC(=O)c3ccccc3)nc12` (centres undefined), the TGI with SN12C renal, in the assay with HCC-2998 colon, with MDA-N, in the assay on ACHN renal, in the assay with HCT-116 colon and with COLO 205 colon was greater than 100 µM throughout. In addition, the TGI in the assay on MDA-MB-435, with HOP-92 NSCLC, in the assay on SK-MEL-5 melanoma, in the assay on MOLT-4 leukemia, with SF-268 CNS and with OVCAR-5 ovarian was greater than 100 µM each time. Further, in the assay with SNB-19 CNS, the TGI is greater than 100 µM.

In the case of `Cc1cc(N(CCC#N)CCC#N)ccc1/C(N=Nc1cccc(Cl)c1)=N/NC(=O)c1cc(Cl)ccc1O`, the TGI was 61.3 µM in the assay with SN12C renal; 26.2 µM in the assay on HCC-2998 colon; greater than 100 µM in the assay with MDA-N; 42 µM in the assay with ACHN renal; 44.4 µM with HCT-116 colon; 17.8 µM with COLO 205 colon. Further, the TGI is greater than 100 µM in the assay with MDA-MB-435; 43.1 µM in the assay with HOP-92 NSCLC; 26.9 µM in the assay with SK-MEL-5 melanoma; 34.8 µM in the assay with MOLT-4 leukemia; 75.2 µM in the assay on SF-268 CNS; greater than 100 µM with OVCAR-5 ovarian. Also, in the assay on SNB-19 CNS, the TGI was greater than 100 µM.

With `CCCCCCCC1(N=[N+]=[N-])C(=O)Nc2ccccc2C1=O` (centres undefined), the TGI in the assay with SN12C renal stood at 34.4 µM; in the assay with HCC-2998 colon, 39.9 µM; in the assay with MDA-N, 37.8 µM; in the assay with ACHN renal, 28.6 µM; with HCT-116 colon, 32.6 µM; in the assay on COLO 205 colon, 36.3 µM. Besides, the TGI with MDA-MB-435 amounted to 34.2 µM; in the assay with HOP-92 NSCLC, 27.2 µM; with SK-MEL-5 melanoma it was 28.4 µM; in the assay on MOLT-4 leukemia, 35.2 µM; in the assay on SF-268 CNS it was 33.3 µM; in the assay on OVCAR-5 ovarian, 34 µM. This compound displayed a TGI with SNB-19 CNS of 32.4 µM.

Regarding `Oc1[nH]c2ccccc2c1N=NC(=S)Nc1ccccc1Cl`, the TGI in the assay with SN12C renal is greater than 100 µM; with HCC-2998 colon it was greater than 100 µM; with MDA-N, greater than 100 µM; in the assay on ACHN renal, 17.2 µM; in the assay on HCT-116 colon, 11.8 µM; in the assay with COLO 205 colon it was greater than 100 µM. Moreover, the TGI was 57.5 µM with MDA-MB-435; 56.2 µM in the assay on HOP-92 NSCLC; 15.8 µM in the assay with SK-MEL-5 melanoma; 4.95 µM in the assay with MOLT-4 leukemia; 56.9 µM in the assay with SF-268 CNS; greater than 100 µM with OVCAR-5 ovarian. Also, the TGI with SNB-19 CNS was greater than 100 µM.

`CSC(=S)Nc1cccc(C)n1`: the TGI in the assay with SN12C renal, in the assay with HCC-2998 colon, in the assay with MDA-N, in the assay with ACHN renal, in the assay with HCT-116 colon and in the assay with COLO 205 colon was greater than 100 µM throughout. In addition, the TGI with MDA-MB-435, in the assay on HOP-92 NSCLC, with SK-MEL-5 melanoma, in the assay with MOLT-4 leukemia, with SF-268 CNS and in the assay on OVCAR-5 ovarian was greater than 100 µM in each case. This compound returned a TGI in the assay with SNB-19 CNS greater than 100 µM.

For the compound `CC(=O)NC1C(OCc2ccccc2)OC(CO)C(O)C1OC(C)C(=O)NC(C)C(=O)NC(CCC(=O)NCCCCNc1c2ccccc2nc2cccc([N+](=O)[O-])c12)C(N)=O` (centres undefined), the TGI amounted to 0.313 µM in the assay on SN12C renal; 0.0588 µM in the assay on HCC-2998 colon; 0.0532 µM in the assay with MDA-N; 0.0664 µM in the assay on ACHN renal; 0.068 µM in the assay with HCT-116 colon; 0.0506 µM in the assay on COLO 205 colon. In addition, the TGI was 0.105 µM with MDA-MB-435; 0.101 µM in the assay with HOP-92 NSCLC; 0.119 µM in the assay on SK-MEL-5 melanoma; 3.13 µM with MOLT-4 leukemia; 0.316 µM in the assay on SF-268 CNS; 1.65 µM in the assay with OVCAR-5 ovarian. Further, the TGI in the assay on SNB-19 CNS came to 0.242 µM.

Turning to `CCOC(=O)C1(C(=O)OCC)[C@@H](c2ccccc2)C2=NO[C@@H]3CCC[C@H]1[C@H]23`, the TGI was greater than 100 µM in the assay on SN12C renal; 50.2 µM with HCC-2998 colon; 64.6 µM with MDA-N; greater than 100 µM with ACHN renal; greater than 100 µM with HCT-116 colon; greater than 100 µM in the assay on COLO 205 colon. Also, the TGI in the assay with MDA-MB-435 was 53.6 µM; in the assay on HOP-92 NSCLC it was greater than 100 µM; in the assay with SK-MEL-5 melanoma, greater than 100 µM; with MOLT-4 leukemia it was greater than 100 µM; in the assay with SF-268 CNS, greater than 100 µM; in the assay with OVCAR-5 ovarian it was greater than 100 µM. Also, the TGI in the assay on SNB-19 CNS was greater than 100 µM.

Take `Fc1ccc(N2C(=S)SC(=Nc3ccccc3)C2=Nc2ccccc2)cc1`: the TGI with SN12C renal, in the assay with HCC-2998 colon, in the assay on MDA-N, in the assay with ACHN renal, in the assay on HCT-116 colon and in the assay on COLO 205 colon was greater than 100 µM throughout. Further, the TGI with MDA-MB-435, in the assay on HOP-92 NSCLC, in the assay with SK-MEL-5 melanoma, in the assay with MOLT-4 leukemia, with SF-268 CNS and with OVCAR-5 ovarian was greater than 100 µM in each case. The compound further returned a TGI in the assay with SNB-19 CNS greater than 100 µM.
